Reference: the Biogen ADME set (Fang et al. 2023)
In brackets after ≈: the same amount, converted by molar mass.

Conditions: for aqueous solubility: pH 6.8

| SMILES | MDR1-MDCK efflux ratio | intrinsic clearance, human liver microsomes | intrinsic clearance, rat liver microsomes | aqueous solubility |
| --- | --- | --- | --- | --- |
| COC(=O)C1=NOC2(CCN(CCC(C)(C)C)CC2)C1 | 0.474 | 144 mL/min/kg | 301 mL/min/kg |  |
| CCc1sc(N)nc1-c1ccc(OC)cc1 | 0.563 | 185 mL/min/kg | 491 mL/min/kg |  |
| CC(C)c1ccc2occ(CC(=O)O)c2c1 |  | ≤ 4.74 mL/min/kg | ≤ 10.7 mL/min/kg |  |
| COc1cccc(NC(=O)C2CNC2)c1 |  | ≤ 4.74 mL/min/kg | 59.4 mL/min/kg | 29.5 µg/mL (≈ 143 µM) |
| CCCN(C(=O)c1ccc(COC)o1)c1nc2c(s1)CCc1c-2cnn1C |  | 75.6 mL/min/kg | 89 mL/min/kg |  |
| CCc1c(C(=O)N2CC[C@@](O)(CC(C)C)[C@@H](Oc3ccc(F)cc3)C2)[nH]c2ccc(C)cc12 | 4.15 | 104 mL/min/kg | 1290 mL/min/kg |  |
| Cc1noc(C)c1COc1ccc2ncccc2c1 |  | 86.8 mL/min/kg | 337 mL/min/kg |  |
| NCCOc1cccc(CC(=O)N2CCC(F)(F)CC2)c1 | 19.4 | ≤ 4.74 mL/min/kg | ≤ 10.7 mL/min/kg |  |
| Cc1ccc(C)c(OCC(=O)N2CCC(C(=O)Nc3ccccc3)CC2)c1 | 2.86 | 302 mL/min/kg | 1390 mL/min/kg | 3.37 µg/mL (≈ 9.2 µM) |
| Cn1ccnc1CN(C(=O)c1[nH]c2ccccc2c1Cl)C1CC1 | 12.4 | 90.5 mL/min/kg | 2250 mL/min/kg | 62.3 µg/mL (≈ 189 µM) |
| COc1ccc(C2(NCc3cccc4ncccc34)CC2)cc1 | 0.483 | 261 mL/min/kg | 1340 mL/min/kg | 55.5 µg/mL (≈ 182 µM) |
| O=C(Nc1ccc2c3c(cccc13)CC2)c1ccc(-n2cncn2)cc1 | 0.473 |  |  | 0.18 µg/mL (≈ 0.529 µM) |
| Cc1cccc(C)c1OCC(=O)N(C)[C@@H]1CC[C@@H](N2CCOCC2)[C@@H]1O |  | 6.43 mL/min/kg | 104 mL/min/kg |  |
| COCCc1noc(CN(C)C(=O)c2ccc3c(c2)CCC3)n1 | 0.812 | 10.4 mL/min/kg | 263 mL/min/kg |  |
| O=C(COc1ccc2ccc(=O)oc2c1)Nc1cccc(COCc2ccco2)c1 |  | 77.5 mL/min/kg | 425 mL/min/kg | 21.4 µg/mL (≈ 52.7 µM) |
| CCCN1CCn2nc(-c3nc4cc(OC)ccc4[nH]3)cc2C1 | 0.825 | ≤ 4.74 mL/min/kg | 280 mL/min/kg | 40.1 µg/mL (≈ 129 µM) |
| Cc1ccccc1C(=O)N1CCC[C@@H]1Cn1nnn(-c2cccs2)c1=O | 1.11 | 114 mL/min/kg | 929 mL/min/kg | 49 µg/mL (≈ 133 µM) |
| O=C(NCC1CCC1)c1ccc(-n2ccnc2)nn1 | 0.616 | 8.32 mL/min/kg | 50.3 mL/min/kg | 34.1 µg/mL (≈ 133 µM) |
| C[C@@H]1NC(=O)N(CCC2Cc3ccccc3C2)C1=O | 0.771 | ≤ 4.74 mL/min/kg | 193 mL/min/kg |  |
| COc1cccc(CNC(=O)C2(C#N)CCOCC2)c1 |  | ≤ 4.74 mL/min/kg | 75.9 mL/min/kg |  |
| Cc1cc(Cl)c(OCCCN2CCNCC2)c(Br)c1 |  | ≤ 4.74 mL/min/kg | 461 mL/min/kg | 36.9 µg/mL (≈ 106 µM) |

| SMILES | MDR1-MDCK efflux ratio | intrinsic clearance, human liver microsomes | intrinsic clearance, rat liver microsomes | aqueous solubility |
| --- | --- | --- | --- | --- |
| C[C@@H](C(=O)N1CCCC1)N1CCC(n2c(=O)[nH]c3ccccc32)CC1 | 162 | ≤ 4.74 mL/min/kg | 64.5 mL/min/kg | 40.6 µg/mL (≈ 119 µM) |
| O=C(NCc1ccc(F)cc1)C1(Cc2ccc(-c3cccnc3)cc2)CCOCC1 | 4.82 | 781 mL/min/kg | 1970 mL/min/kg | 87.5 µg/mL (≈ 216 µM) |
| O=C(Nc1nc2ccccc2[nH]1)C1CC(=O)N(c2cccc(C(F)(F)F)c2)C1 (centres undefined) |  |  |  | 0.82 µg/mL (≈ 2.11 µM) |
| CCOc1ccccc1C(=O)N1CCC(c2nc(-c3ccc(OC)cc3)c(C(N)=O)[nH]2)CC1 | 47.7 | 104 mL/min/kg | 237 mL/min/kg | 46.4 µg/mL (≈ 103 µM) |
| N#Cc1ccc(OCCn2cccn2)cc1 | 0.584 | 6.93 mL/min/kg | ≤ 10.7 mL/min/kg | 39.8 µg/mL (≈ 187 µM) |
| Cc1cc(NC(=O)CCc2c(C)nn(C)c2C)no1 | 3.86 | ≤ 4.74 mL/min/kg | 45 mL/min/kg | 50.7 µg/mL (≈ 193 µM) |
| Cc1ccc(NC(=O)c2cccc3cccnc23)cc1 |  | 206 mL/min/kg | 240 mL/min/kg | 5.7 µg/mL (≈ 21.7 µM) |
| Cc1ccc2c(c1)cc(C(=O)N1CCOC(C(=O)N3CCc4ccccc4C3)C1)n2C (centres undefined) | 2.39 | 196 mL/min/kg | 2510 mL/min/kg |  |
| CCN1CCC(Oc2ncnc3c2c(C)c(C)n3C2CCCCC2)CC1 |  | 31.7 mL/min/kg | 725 mL/min/kg |  |
| C[C@@H](NC(=O)c1cc(Br)c2c(c1)OCCO2)c1cn(-c2ccccc2)nn1 | 3.48 |  |  |  |
| O=C(CN1CCCN(c2nccs2)CC1)Nc1cccc(Cl)c1 | 0.851 | 442 mL/min/kg | 1950 mL/min/kg | 37.1 µg/mL (≈ 106 µM) |
| Oc1c(C(c2ccc(F)cc2)N2CCCCC2)ccc2cccnc12 (centres undefined) |  | 35.1 mL/min/kg | 382 mL/min/kg |  |
| CS(=O)(=O)N1CCC(Nc2ccc3ccc(F)cc3n2)CC1 |  | 5.9 mL/min/kg | 98 mL/min/kg | 52.8 µg/mL (≈ 163 µM) |
| COc1ccc(S(=O)(=O)N2CCC[C@H](C(=O)Nc3cccc4ncccc34)C2)cc1 |  | 22.6 mL/min/kg | 611 mL/min/kg |  |
| CCn1nccc1-c1cc(CC2CCNCC2)ncn1 | 54.7 | ≤ 4.74 mL/min/kg | ≤ 10.7 mL/min/kg | 37.3 µg/mL (≈ 137 µM) |
| CCN(c1ccccc1)S(=O)(=O)c1ccc(C(F)(F)F)cc1 |  |  |  | 1.4 µg/mL (≈ 4.25 µM) |
| N#CCCCN1CCC(c2c[nH]c3ccccc23)CC1 | 0.46 | 23.8 mL/min/kg | 1730 mL/min/kg | 54.6 µg/mL (≈ 204 µM) |
| COc1ccccc1-c1nn(-c2ccccc2)cc1CO | 0.418 | 42.1 mL/min/kg | 374 mL/min/kg | 19.7 µg/mL (≈ 70.4 µM) |
| Cc1ccc(-c2nc(CN3C(=O)C(=O)N(C4CCCC4)C3=O)cs2)cc1 | 0.789 |  |  | 0.26 µg/mL (≈ 0.704 µM) |
| NC(=O)CN1CCC(CCc2ccccc2)CC1 |  | ≤ 4.74 mL/min/kg | 461 mL/min/kg | 41.3 µg/mL (≈ 168 µM) |
| CCOc1ncccc1C(=O)Nc1sccc1C#N |  |  |  | 1.13 µg/mL (≈ 4.13 µM) |

| SMILES | MDR1-MDCK efflux ratio | intrinsic clearance, human liver microsomes | intrinsic clearance, rat liver microsomes | aqueous solubility |
| --- | --- | --- | --- | --- |
| Cc1nc(Cn2nnnc2C(C)(C)C)nc2ccccc12 |  | 7.42 mL/min/kg | 724 mL/min/kg |  |
| Nc1nc2ccccc2n1C1CCCC1 |  | 37.1 mL/min/kg | 87.6 mL/min/kg |  |
| O=C(NCc1cccnc1)c1cnn(-c2ccccc2)c1 | 2.46 | ≤ 4.74 mL/min/kg | 26.3 mL/min/kg | 38.3 µg/mL (≈ 138 µM) |
| c1ccc(CO[C@@H]2CCC[C@H]2n2cc(-c3nccs3)nn2)cc1 | 0.658 | 63.2 mL/min/kg | 3020 mL/min/kg | 15.7 µg/mL (≈ 48 µM) |
| Cn1cc(C(=O)O)c(-c2cccnc2)n1 |  |  |  | 40.8 µg/mL (≈ 201 µM) |
| Cc1nc2cc(C(=O)N3CCc4nc5ccccc5c(=O)n4CC3)ccc2n1C |  | ≤ 4.74 mL/min/kg | 24.7 mL/min/kg | 67.3 µg/mL (≈ 174 µM) |
| CCN(C(=O)c1cccc(-n2cccn2)c1)c1ccc(C#N)c(Cl)c1 |  | 79 mL/min/kg | 2060 mL/min/kg |  |
| Nc1nnc(SCCSC2CCCCC2)n1C1CC1 | 3.81 | 48.5 mL/min/kg | 582 mL/min/kg |  |
| Cc1ccccc1CS(=O)(=O)c1ncc(Cl)c(C(=O)Nc2sc3c(c2C#N)CCCC3)n1 |  | 568 mL/min/kg | 2120 mL/min/kg |  |
| Cc1nc(O)c2c(n1)CN(Cc1ccccc1)CC2 | 9.79 | ≤ 4.74 mL/min/kg | ≤ 10.7 mL/min/kg | 42.7 µg/mL (≈ 167 µM) |
| COc1nc2c(cc1CNC(=O)N1CCC[C@@H]1CO)C(=O)N(C1CCCC1)C2 | 78.1 | 8.55 mL/min/kg | 69.1 mL/min/kg |  |
| Nc1nccc2ccc(-c3cccc(F)c3)cc12 |  | 209 mL/min/kg | 790 mL/min/kg | 3 µg/mL (≈ 12.6 µM) |
| C[C@@H]1CN(Cc2ccccc2)C[C@H]1c1nc2c(cnn2C2CCOCC2)c(=O)[nH]1 | 14.3 | 36.3 mL/min/kg | 321 mL/min/kg |  |
| CCONC(=O)Cc1coc2c(C)c(C)ccc12 |  | 89.7 mL/min/kg | 1060 mL/min/kg | 34.2 µg/mL (≈ 138 µM) |
| CNCc1cc(N(C)C)nc(C2CCCN2C(=O)COc2ccc(F)cc2)n1 (centres undefined) | 46.7 | ≤ 4.74 mL/min/kg | 244 mL/min/kg |  |
| Cc1cc(NC(=O)N2Cc3cc4c(cc3C3(CCCC3)C2)OCCO4)no1 | 0.72 |  |  | 0.3 µg/mL (≈ 0.812 µM) |
| O=C(Nc1ccccn1)c1cccc2ccccc12 |  | 131 mL/min/kg | 140 mL/min/kg | 35.3 µg/mL (≈ 142 µM) |
| Cc1cccc(NC(=O)C(=O)c2c(C)nn(C)c2C)n1 |  | 19.4 mL/min/kg | 231 mL/min/kg |  |
| Cc1nccn1-c1ccc(F)cc1CNC(=O)C(C)C | 22.2 | 8.38 mL/min/kg | 57.2 mL/min/kg | 59.4 µg/mL (≈ 216 µM) |
| CCOc1ccc2[nH]c(C(=O)N3CC[C@@](O)(CC(C)C)[C@@H](Oc4ccc(F)cc4)C3)c(C)c2c1 | 6.74 | 109 mL/min/kg | 943 mL/min/kg |  |
